“Also recorded” adds a separate entry of the source.
Assays:
[1] = target: SERT (rat forebrain synaptosomal membrane) (Rattus norvegicus (Rat), UniProt P31652); assay: Transporter SERT radioligand binding assay in rat forebrain, [3H]-N-Methyl-Citalopram; conditions: Table 2
socially-defeated mice [2] = assay: Social defeat (resident-intruder) mouse model for depression; format: in vivo
[3] = system: unilateral 6-OHDA-lesioned mice; assay: L-DOPA induced dyskinesia (AIMS) in unilateral 6-OHDA-lesioned mice; format: in vivo, mouse
Description: Day 1-Day 9: Treatment with L-DOPA/benserazide
Day 10: Treatment with L-DOPA/benserazide+Evaluation of AIMs (dyskinesia)
Experiment 1 (Chronic): Development of Dyskinesia
Day 1-Day 10: Treatment with L-DOPA/benserazide plus ITI-007 ITI-007PD.
Day 11: Treatment with L-DOPA/benserazide+Evaluation of AIMs (dyskinesia)
Experiment 2 (Acute): Expression of dyskinesia
Day 1-Day 10: Treatment with L-DOPA/benserazide
Day 11: Treatment with L-DOPA/benserazide plus ITI-007+Evaluation of AIMs (dyskinesia)
The compound effectively reduces (by ˜50%) the development of dyskinetic behaviors in PD mice (i.e., Chronic treatment group). It has a less robust but still significant effect (by ˜25% reduction) on established dyskinetic behaviors (i.e., Acute treatment group). […] In addition to reducing L-DOPA-Induced Dyskinesias, as described above, the Compounds of Formula I will also reduce PD psychosis and depression, improve poor night time sleep and reduce excessive daytime sleepiness.

[4] = system: patients with sleep maintenance insomnia (SMI); assay: Clinical trial, overnight PSG in patients with sleep maintenance insomnia; format: in vivo, human; conditions: for SWS, Mean Change from Baseline / Total Sleep Time, Mean Change from Baseline / Total Time Awake, Mean Change from Baseline / WASO, Mean Change from Baseline: n = 18, PSG
Striatal D2 receptor = Striatal D2 receptor (Homo sapiens (Human), UniProt P14416); assay: Striatal D2 receptor occupancy by positron emission tomography in healthy volunteers; format: in vivo; conditions: PET
human 5-HT2C receptors = human 5-HT2C receptors (Homo sapiens (Human), UniProt P28335, I156V/I160V); assay: biochemical
H1 receptors = H1 receptors (Homo sapiens (Human), UniProt P35367); assay: biochemical
socially-defeated mice [5] = conditions: treated daily for 30 days; cited from earlier work
[6] = 1, 5, 10 mg single doses, in words

Chain of Striatal D2 receptor (P14416 whole entry): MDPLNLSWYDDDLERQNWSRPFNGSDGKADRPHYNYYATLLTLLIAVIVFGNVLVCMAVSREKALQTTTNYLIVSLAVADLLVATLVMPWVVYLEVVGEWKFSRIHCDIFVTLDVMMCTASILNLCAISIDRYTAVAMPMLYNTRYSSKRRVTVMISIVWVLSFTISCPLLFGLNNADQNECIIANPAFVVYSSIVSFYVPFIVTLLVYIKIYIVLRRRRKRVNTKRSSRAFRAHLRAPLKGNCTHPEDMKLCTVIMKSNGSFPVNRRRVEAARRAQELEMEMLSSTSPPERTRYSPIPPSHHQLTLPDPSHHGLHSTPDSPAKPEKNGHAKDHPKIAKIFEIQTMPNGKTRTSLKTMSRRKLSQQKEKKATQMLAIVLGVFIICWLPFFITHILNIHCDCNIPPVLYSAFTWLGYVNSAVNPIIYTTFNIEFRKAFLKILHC
Chain of SERT (rat forebrain synaptosomal membrane) (P31652 whole entry): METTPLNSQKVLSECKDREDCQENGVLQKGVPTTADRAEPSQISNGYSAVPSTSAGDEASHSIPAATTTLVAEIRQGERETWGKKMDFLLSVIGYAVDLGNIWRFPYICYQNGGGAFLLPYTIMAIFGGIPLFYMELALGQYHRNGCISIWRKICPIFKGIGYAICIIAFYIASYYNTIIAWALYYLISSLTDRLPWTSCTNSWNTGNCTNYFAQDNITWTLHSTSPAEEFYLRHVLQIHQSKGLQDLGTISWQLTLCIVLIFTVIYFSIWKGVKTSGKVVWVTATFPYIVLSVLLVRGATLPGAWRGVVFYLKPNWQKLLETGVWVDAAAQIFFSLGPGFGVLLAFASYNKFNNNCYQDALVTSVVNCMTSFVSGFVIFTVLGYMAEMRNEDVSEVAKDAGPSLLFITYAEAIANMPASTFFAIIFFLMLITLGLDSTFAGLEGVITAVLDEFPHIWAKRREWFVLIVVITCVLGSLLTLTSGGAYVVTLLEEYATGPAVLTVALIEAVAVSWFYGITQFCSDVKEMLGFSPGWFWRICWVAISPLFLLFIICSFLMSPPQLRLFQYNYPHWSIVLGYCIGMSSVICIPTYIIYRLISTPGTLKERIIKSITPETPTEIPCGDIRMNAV
Chain of H1 receptors (P35367 whole entry): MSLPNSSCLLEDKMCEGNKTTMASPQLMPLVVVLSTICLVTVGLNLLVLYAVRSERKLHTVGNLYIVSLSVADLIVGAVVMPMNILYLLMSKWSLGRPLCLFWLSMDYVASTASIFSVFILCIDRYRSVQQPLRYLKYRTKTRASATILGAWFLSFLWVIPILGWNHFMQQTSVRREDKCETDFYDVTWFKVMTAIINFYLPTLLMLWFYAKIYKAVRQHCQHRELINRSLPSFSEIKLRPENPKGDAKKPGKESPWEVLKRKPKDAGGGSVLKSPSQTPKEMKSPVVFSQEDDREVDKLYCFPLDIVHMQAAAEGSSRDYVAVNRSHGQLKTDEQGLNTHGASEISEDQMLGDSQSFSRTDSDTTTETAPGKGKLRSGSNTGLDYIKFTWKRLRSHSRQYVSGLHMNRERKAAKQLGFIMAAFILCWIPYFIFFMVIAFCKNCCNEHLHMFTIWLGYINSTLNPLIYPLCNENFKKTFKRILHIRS
Chain of human 5-HT2C receptors (P28335 33-458 I156V/I160V): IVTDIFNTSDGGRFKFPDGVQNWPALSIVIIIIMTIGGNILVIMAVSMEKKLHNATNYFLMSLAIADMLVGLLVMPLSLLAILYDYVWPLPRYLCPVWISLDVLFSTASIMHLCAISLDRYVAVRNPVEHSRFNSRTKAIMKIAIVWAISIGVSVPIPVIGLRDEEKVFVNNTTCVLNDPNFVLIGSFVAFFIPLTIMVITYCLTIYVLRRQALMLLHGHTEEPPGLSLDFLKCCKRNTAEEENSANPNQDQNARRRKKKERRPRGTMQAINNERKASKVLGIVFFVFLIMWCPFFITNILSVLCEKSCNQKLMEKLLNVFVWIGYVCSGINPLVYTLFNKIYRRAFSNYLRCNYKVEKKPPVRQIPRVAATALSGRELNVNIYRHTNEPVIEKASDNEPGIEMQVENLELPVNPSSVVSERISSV

Structure (SMILES): CN1CCN2c3c(cccc31)[C@@H]1CN(CCCC(=O)c3ccc(F)cc3)CC[C@@H]12 [Compound A, 1-(4-Fluoro-phenyl)-4-((6bR,10aS)-3-methyl-2,3,6b,9,10,10a-hexahydro-1H,7H-pyrido[3′,4′,4,5]pyrrolo[1,2,3-de]quinoxalin-8-yl)-butan-1-one]
- Ki [1]: 46 nM
- time in the Interaction Zone, socially-defeated mice (socially-defeated mice [2]; 1 mg/kg IP once daily for 29 d, tested day 30, versus socially-defeated mice receiving vehicle): almost twice as much time in the Interaction Zone
- general health and weight gain, normal mice (socially-defeated mice [2]; normal mice treated once daily for 30 d, 1 mg/kg IP): healthy and normal-appearing and gained weight normally
- time in the Interaction Zone, normal mice (socially-defeated mice [2]; normal mice, 1 mg/kg IP once daily, versus vehicle): comparable time in the Interaction Zone as mice receiving the vehicle injection
- reduction of development of dyskinetic behaviors (Chronic treatment group) ([3]; 0.3 mg/kg IP co-administered with levodopa 10 mg/kg IP, chronic): ~50%
- reduction of established dyskinetic behaviors (Acute treatment group) ([3]; 0.3 mg/kg IP with levodopa 10 mg/kg IP, acute): ~25%
- SWS, Mean Change from Baseline ([4]; 1 mg single dose): 0.47 min
- Total Sleep Time, Mean Change from Baseline ([4]; 1 mg single dose): 4.17 min
- Total Time Awake, Mean Change from Baseline ([4]; 1 mg single dose): -4.08 min
- WASO, Mean Change from Baseline ([4]; 1 mg single dose): -12.69 min
- SWS, Mean Change from Baseline ([4]; 5 mg single dose): 5.53 min
- Total Sleep Time, Mean Change from Baseline ([4]; 5 mg single dose): 0.56 min
- Total Time Awake, Mean Change from Baseline ([4]; 5 mg single dose): -1.42 min
- WASO, Mean Change from Baseline ([4]; 5 mg single dose): -14.31 min
- SWS, Mean Change from Baseline ([4]; 10 mg single dose): 8.94 min
- Total Sleep Time, Mean Change from Baseline ([4]; 10 mg single dose): 27.61 min
- Total Time Awake, Mean Change from Baseline ([4]; 10 mg single dose): -28.31 min
- WASO, Mean Change from Baseline ([4]; 10 mg single dose): -33.22 min
- effect on slow wave sleep (SWS) [4, 6]: increases SWS; also recorded: dose-dependently increase slow wave sleep
- effect on wake time after sleep onset (WASO) [4, 6]: dose-dependently decreases WASO; also recorded: dose-dependently decreases wake after sleep onset
- duration of REM ([4]; PSG): no change in duration of REM; also recorded: did not suppress REM sleep
- latency to REM ([4]; PSG): no change on latency to REM
- latency to fall asleep ([4]; PSG): does not impair latency to fall asleep
- slow wave sleep by part of the night ([4]; first and second quarter of the night): increases slow wave sleep during the first half of the night
- dose-related adverse events or changes in safety parameters ([4]; human, in vivo): no dose-related adverse events or changes in safety parameters
- early-morning rebound insomnia ([4]; human, in vivo): no early-morning rebound insomnia
- serious adverse events ([4]; human, in vivo): no serious adverse events
- total sleep time ([4]; in words): increase total sleep time
- cognitive function the morning after PSG (DSST, WPAT, Leeds Psychomotor Test) ([4]; next day): does not impair cognitive function; also recorded: do not impair next-day cognitive function
- sleep architecture ([4]; over the course of the night): preserves normal sleep architecture over the course of the night
- safety and tolerability ([4]; patients with sleep maintenance insomnia): safe and well tolerated; also recorded: safe and well-tolerated
- stage 2 sleep by part of the night ([4]; third and fourth quarter of the night): increases stage 2 sleep during the second half of the night
- % Striatal D2 Occupancy (Striatal D2 receptor; 20 mg): ~20%
- % Striatal D2 Occupancy (Striatal D2 receptor; 30 mg): ~32%
- Ki (human 5-HT2C receptors): 173 nM
- Ki (H1 receptors): > 100 nM

Structure (SMILES): CN(C)CCCN1c2ccccc2CCc2ccccc21 [IMI, imipramine]
- social interaction behavior of socially defeated mice after chronic anti-depressant (socially-defeated mice [5]): improved social interaction behavior

Structure (SMILES): CNCCC(Oc1ccc(C(F)(F)F)cc1)c1ccccc1 (centres unmarked) [fluoxetine]
- social interaction behavior of socially defeated mice after chronic anti-depressant (socially-defeated mice [5]): improved social interaction behavior

From patent publication US8598119B2, “Methods and compositions for sleep disorders and other disorders” (priority 2008, dated 2013)
